Data reported in PubChem BioAssay AID330 (DTP/NCI, 2004).
Several values for one entry are separate records, joined by “and”; a condition that tells them apart may be missing. Identical values can stand only once. Toxic doses and inconclusive results are not listed. How the source made its calls: active means survival T/C of 150% or more; inactive means T/C below 125% in these data.

Test system: P388 leukemia ip, CD2F1 mice, survival T/C
Assay: NCI In Vivo Anticancer Drug Screen. Data for tumor model P388 Leukemia (intraperitoneal) in CD2F1 (CDF1) mice
Details: endpoint: median survival time, higher = longer survival
Method in brief: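 Mice carrying the transplanted tumor received test compound or vehicle. Survival was recorded in each group, and the value is the treated-group measurement divided by that of the vehicle-treated control group.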

[1] = dose: 6.25 mg/kg/injection, schedule: Q01DX009 (ip), vehicle: saline
[2] = dose: 12.5 mg/kg/injection, schedule: Q01DX009 (ip), vehicle: saline
[3] = dose: 25.0 mg/kg/injection, schedule: Q01DX009 (ip), vehicle: saline
[4] = dose: 50.0 mg/kg/injection, schedule: Q01DX009 (ip), vehicle: saline
[5] = dose: 100.0 mg/kg/injection, schedule: Q01DX009 (ip), vehicle: saline
[6] = dose: 50.0 mg/kg/injection, schedule: Q01DX009 (ip), vehicle: saline with Tween-80
[7] = dose: 100.0 mg/kg/injection, schedule: Q01DX009 (ip), vehicle: saline with Tween-80
[8] = dose: 200.0 mg/kg/injection, schedule: Q01DX009 (ip), vehicle: saline with Tween-80
[9] = dose: 50.0 mg/kg/injection, schedule: Q01DX009 (ip), vehicle: Klucel (hydroxypropylcellulose) (HPC)
[10] = dose: 100.0 mg/kg/injection, schedule: Q01DX009 (ip), vehicle: Klucel (hydroxypropylcellulose) (HPC)
[11] = dose: 200.0 mg/kg/injection, schedule: Q01DX009 (ip), vehicle: Klucel (hydroxypropylcellulose) (HPC)
[12] = dose: 50.0 mg/kg/injection, schedule: Q01DX005 (ip), vehicle: Klucel (hydroxypropylcellulose) (HPC)
[13] = dose: 100.0 mg/kg/injection, schedule: Q01DX005 (ip), vehicle: Klucel (hydroxypropylcellulose) (HPC)
[14] = dose: 200.0 mg/kg/injection, schedule: Q01DX005 (ip), vehicle: Klucel (hydroxypropylcellulose) (HPC)
[15] = dose: 50.0 mg/kg/injection, schedule: Q01DX005 (ip), vehicle: saline with Tween-80
[16] = dose: 100.0 mg/kg/injection, schedule: Q01DX005 (ip), vehicle: saline with Tween-80
[17] = dose: 200.0 mg/kg/injection, schedule: Q01DX005 (ip), vehicle: saline with Tween-80
[18] = dose: 60.0 mg/kg/injection, schedule: Q01DX005 (ip), vehicle: saline with Tween-80
[19] = dose: 120.0 mg/kg/injection, schedule: Q01DX005 (ip), vehicle: saline with Tween-80
[20] = dose: 200.0 mg/kg/injection, schedule: Q01DX009 (ip), vehicle: saline

Measured: T/C

ClCCN(CCCl)c1ccc(CN2CCCCCC2)cc1
inactive: [1] 111 % of control | [2] 114 % of control | [3] 116 % of control

CC1CNC2(c3ccccc3)CSC=C(c3ccccc3)N12 (stereo unspecified)
inactive: dose: 100.0 mg/kg/injection, schedule: Q04DX002 (ip), vehicle: saline with Tween-80 98 % of control | dose: 200.0 mg/kg/injection, schedule: Q04DX002 (ip), vehicle: saline with Tween-80 101 % of control | dose: 400.0 mg/kg/injection, schedule: Q04DX002 (ip), vehicle: saline with Tween-80 102 % of control

C/C=C(\C)C(=O)OCc1c2c(c(OC)c3occ(C)c13)C=CCC2C (stereo unspecified)
inactive: dose: 5.5 mg/kg/injection, schedule: Q01DX009 (ip), vehicle: Klucel (hydroxypropylcellulose) (HPC) 94 % of control | dose: 11.0 mg/kg/injection, schedule: Q01DX009 (ip), vehicle: Klucel (hydroxypropylcellulose) (HPC) 100 % of control | dose: 22.0 mg/kg/injection, schedule: Q01DX009 (ip), vehicle: Klucel (hydroxypropylcellulose) (HPC) 100 % of control | dose: 44.0 mg/kg/injection, schedule: Q01DX009 (ip), vehicle: Klucel (hydroxypropylcellulose) (HPC) 104 % of control

CCCCCCCC/C=C\CCCCCCCCN1CCOCC1
inactive: [4] 97 % of control | [5] 106 % of control

COc1cccc2c1C(=O)c1c(O)c3c(c(O)c1C2=O)CC(O)(C(=O)COC(C)C)CC3O (stereo unspecified)
inactive: dose: 1.56 mg/kg/injection, schedule: Q01DX009 (ip), vehicle: other 100 % of control | dose: 3.13 mg/kg/injection, schedule: Q01DX009 (ip), vehicle: other 100 % of control | dose: 6.25 mg/kg/injection, schedule: Q01DX009 (ip), vehicle: other 100 % of control | dose: 12.5 mg/kg/injection, schedule: Q01DX009 (ip), vehicle: other 103 % of control | dose: 25.0 mg/kg/injection, schedule: Q01DX009 (ip), vehicle: other 103 % of control

CN(C)CC1(c2ccccc2)C(=O)N(C)C(=O)N(C2CCCCC2)C1=O (stereo unspecified)
inactive: [6] 100 % of control | [7] 105 % of control | [8] 115 % of control

N#CC1C(=O)NC(=S)NC1c1ccccc1 (stereo unspecified)
inactive: [9] 95 % of control | [10] 101 % of control | [11] 98 % of control

CCCC(=O)Nc1ccc([N+](=O)[O-])cc1OC
inactive: dose: 100.0 mg/kg/injection, schedule: Q04DX003 (ip), vehicle: saline with Tween-80 88 % of control | dose: 200.0 mg/kg/injection, schedule: Q04DX003 (ip), vehicle: saline with Tween-80 100 % of control | dose: 400.0 mg/kg/injection, schedule: Q04DX003 (ip), vehicle: saline with Tween-80 100 % of control

CC(C)=CCc1c2ccoc2c(O)c2oc(=O)ccc12
inactive: dose: 25.0 mg/kg/injection, schedule: Q01DX009 (ip), vehicle: saline with Tween-80 106 % of control | [6] 105 % of control | [7] 105 % of control

CC1=CC(=O)C2(C)C1=CC(=O)C13COC4OC(CC1C4=O)C(O)C23 (stereo unspecified)
inactive: dose: 1.0 mg/kg/injection, schedule: Q01DX009 (ip), vehicle: Klucel (hydroxypropylcellulose) (HPC) 97 % of control | dose: 2.0 mg/kg/injection, schedule: Q01DX009 (ip), vehicle: Klucel (hydroxypropylcellulose) (HPC) 94 % of control | dose: 4.0 mg/kg/injection, schedule: Q01DX009 (ip), vehicle: Klucel (hydroxypropylcellulose) (HPC) 98 % of control | dose: 8.0 mg/kg/injection, schedule: Q01DX009 (ip), vehicle: Klucel (hydroxypropylcellulose) (HPC) 102 % of control

CCOc1cc2c(cc1C(C)c1ccc(OCc3ccccc3)cc1)OCO2 (stereo unspecified)
inactive: [12] 88 % of control | [13] 96 % of control | [14] 91 % of control

Cc1cc(C)c(C#N)c(SSC(Cl)(Cl)Cl)n1
inactive: [15] 96 % of control | [16] 93 % of control | [17] 91 % of control

C/C=C1/CN2CC[C@@]34c5cc([C@]67C8CCN9C/C(=C/C)[C@H](CC96)C(C(=O)OC)N7c6ccccc68)c(OC)cc5N(C)[C@H]3C2CC1C4C(=O)OC (stereo partly specified)
inactive: dose: 5.25 mg/kg/injection, schedule: Q01DX005 (ip), vehicle: Klucel (hydroxypropylcellulose) (HPC) 104 % of control | dose: 10.5 mg/kg/injection, schedule: Q01DX005 (ip), vehicle: Klucel (hydroxypropylcellulose) (HPC) 98 % of control | dose: 21.0 mg/kg/injection, schedule: Q01DX005 (ip), vehicle: Klucel (hydroxypropylcellulose) (HPC) 90 % of control | dose: 42.0 mg/kg/injection, schedule: Q01DX005 (ip), vehicle: Klucel (hydroxypropylcellulose) (HPC) 96 % of control

C=CCCN=C(SC)SC
inactive: [18] 104 % of control | [19] 114 % of control

CSCC(NP1(=O)SC(NN=C(C)C)=NC1(C)C)C(=O)O (stereo unspecified)
inactive: dose: 60.0 mg/kg/injection, schedule: Q01DX005 (ip), vehicle: saline 106 % of control | dose: 120.0 mg/kg/injection, schedule: Q01DX005 (ip), vehicle: saline 107 % of control

CC(C)CC1NC(=O)OC1=O (stereo unspecified)
inactive: [15] 98 % of control | [16] 94 % of control | [17] 91 % of control

COc1ccccc1N1C(=O)CSC1=Nc1ccccc1
inactive: [4] 98 % of control | [5] 96 % of control | [20] 100 % of control

O=C(OC1CCC2(CC1)N=NC1(CCC(OC(=O)c3ccccc3)CC1)S2)c1ccccc1 (stereo unspecified)
inactive: [4] 98 % of control | [5] 97 % of control | [20] 101 % of control

CCCCN(CCCC)CC(O)c1cc2ccccc2c2cc(Br)ccc12 (stereo unspecified)
inactive: [15] 100 % of control | [16] 102 % of control | [17] 100 % of control

CCCCCCCCCCCC(=O)N(CCCC)CCCC
inactive: dose: 37.5 mg/kg/injection, schedule: Q01DX009 (ip), vehicle: Klucel (hydroxypropylcellulose) (HPC) 100 % of control | dose: 75.0 mg/kg/injection, schedule: Q01DX009 (ip), vehicle: Klucel (hydroxypropylcellulose) (HPC) 98 % of control | dose: 150.0 mg/kg/injection, schedule: Q01DX009 (ip), vehicle: Klucel (hydroxypropylcellulose) (HPC) 92 % of control

CCCN(CCC)C(=O)C(c1ccccc1)C1(O)CCCC1 (stereo unspecified)
inactive: [12] 101 % of control | [13] 102 % of control | [14] 102 % of control

CC(=O)OC1C=CC(O)N(C(C)=O)C1SC1C2CC3CC(C2)CC1C3 (stereo unspecified)
inactive: dose: 100.0 mg/kg/injection, schedule: Q04DX003 (ip), vehicle: saline 101 % of control | dose: 200.0 mg/kg/injection, schedule: Q04DX003 (ip), vehicle: saline 101 % of control | dose: 400.0 mg/kg/injection, schedule: Q04DX003 (ip), vehicle: saline 108 % of control

O=C(CCS(=O)O)c1ccccc1
inactive: dose: 100.0 mg/kg/injection, schedule: Q04DX002 (ip), vehicle: saline 101 % of control | dose: 200.0 mg/kg/injection, schedule: Q04DX002 (ip), vehicle: saline 100 % of control | dose: 400.0 mg/kg/injection, schedule: Q04DX002 (ip), vehicle: saline 94 % of control

Cc1ccc(C(=O)CC[N+](C)(C)C)cc1
inactive: dose: 3.13 mg/kg/injection, schedule: Q01DX009 (ip), vehicle: saline 109 % of control | [1] 113 % of control | [2] 109 % of control

N#CC1C(=O)NC(=O)C(C#N)C1CCc1ccccc1 (stereo unspecified)
inactive: dose: 50.0 mg/kg/injection, schedule: Q01DX009 (ip), vehicle: distilled water + alcohol 103 % of control | dose: 100.0 mg/kg/injection, schedule: Q01DX009 (ip), vehicle: distilled water + alcohol 100 % of control | dose: 200.0 mg/kg/injection, schedule: Q01DX009 (ip), vehicle: distilled water + alcohol 100 % of control

CC(=O)Nc1ccc(C(=O)/C=N\NC(N)=S)cc1
inactive: [6] 94 % of control | [7] 86 % of control | [8] 94 % of control

Cc1ccc(C(CC(=O)O)C(N)C(=O)O)cc1 (stereo unspecified)
inactive: [2] 98 % of control | [3] 88 % of control | [4] 95 % of control and 96 % of control | [5] 100 % of control | [20] 95 % of control

CC(=O)OC1CCC2(C)C(C1)CC(OC(C)=O)C1C2CC(OC(C)=O)C2(C)C(/C(C)=C\C=C(c3ccccc3)c3ccccc3)CCC12 (stereo unspecified)
inactive: [9] 103 % of control | [10] 112 % of control | [11] 121 % of control

Nc1ccccc1-c1nnc(-c2ccccc2)o1
inactive: [18] 100 % of control | [19] 89 % of control | dose: 240.0 mg/kg/injection, schedule: Q01DX005 (ip), vehicle: saline with Tween-80 86 % of control
